Entries after “also recorded” stand apart in the source; their conditions may differ.
Assays:
[1] = tested on: muscle pressure hyperalgesia induced by TNF; assay: TNF-induced muscle pressure hyperalgesia (Randall-Selitto, gastrocnemius muscle); assay type: in vivo, rat; conditions: for reversal of muscular mechanical hyperalgesia (withdrawal threshold to muscle pressure): TNF 1 μg i.m. gastrocnemius, 30 mg/kg
Description: (§1) The model used in this example is applicable to musculoskeletal pain which occurs in fibromyalgia, myofascial pain syndrome or back pain. For comparative purposes, the non-opioid analgesic dipyrone (metamizol) and the anticonvulsants pregabalin and gabapentin were included in the study.
(§2) Adult male Sprague Dawley rats with a body weight of 250 g to 300 g were used (supplier: Charles River, Sulzfeld, Germany). Animals were group-housed (3 animals per cage) and maintained in a room with controlled temperature (21-22° C.) and a reversed light-dark cycle (12 h/12 h) with food and water available ad libitum. All experiments were approved by the Bavarian State animal experimentation committee and carried out in accordance with its regulations.
(§3) Recombinant rat tumor necrosis factor alpha (herein referred to as TNF) was obtained from R&D Systems, Minneapolis, Minn., U.S.A. TNF was diluted in 0.9% NaCl and used in a concentration of 1 μg in 50 μl. Injections were performed in short halothane narcosis with a 30 g needle bilaterally into the gastrocnemius or into the biceps brachii muscle. All rats were used to the behavioral tests before injections and baseline values were recorded over three test days.
Mechanical withdrawal thresholds to muscle pressure were measured with an analgesimeter (Ugo Basile, Comerio, Italy). The rat was allowed to crawl into a sock which helps the rat to relax. The hind limbs were positioned such that an increasing pressure could be applied onto the gastrocnemius muscle (maximum 250 g). The pressure needed to elicit withdrawal was recorded. Means of 3 trials for each hind limb were calculated (interstimulus interval of >30 sec). Only animals with a significant TNF effect were included for further analysis.
Rats were injected with TNF into the gastrocnemius muscle at 2 pm. Eighteen hours later, rats were tested for pressure hyperalgesia pre- and post-administration of the test drug. Rats were tested for pressure hyperalgesia 30 to 60 minutes after drug administration.
(§4) The rats, initially 10 per group, were treated with either 3, 10 or 30 mg/kg lacosamide, 2 mg/kg metamizol, 30 or 100 mg/kg pregabalin, 100 mg/kg gabapentin, or the NaCl vehicle, i.p. (intraperitoneally). Volume of i.p. injections was 0.5 ml. A pilot study was performed to confirm that i.m. (intramuscular) injection of 1 μg TNF into the gastrocnemius muscle was sufficient to induce pressure hyperalgesia.
(§5) Data are shown in graphs displaying means and standard errors of the means (SEM). Pre- and post-treatment data were compared using ANOVA (analysis of variance) and a Tukey post hoc test. Means of treatment groups were compared using a one-way ANOVA and Dunnett's post hoc test. Maximal possible effects (MPE) were calculated for all types of treatment.

[2] = tested on: TNF-induced reduction of grip strength; assay: biceps muscle grip strength after TNF-induced muscle pain; assay type: in vivo, rat; conditions: for reversal of TNF-induced reduction of grip strength: TNF 1 μg i.m. biceps brachii
Description: as §1, §2, §3
Grip strength of the forelimbs was tested with a digital grip force meter (DFIS series, Chatillon, Greensboro, N.C., U.S.A.). The rat was positioned to grab the grid with the forelimbs and was gently pulled so that the grip strength could be recorded. Means of three trials were calculated. The effect of the TNF treatment was calculated for each animal separately and only animals with a significant TNF effect were included for further analysis.
Rats were injected with TNF into the biceps brachii muscle at 8 am. Six hours later, grip strength of the forelimbs was tested with a digital grip force meter. Test drug was administered, and grip strength was again tested after 30 to 60 minutes.
as §4, §5

[3] = tested on: monosodium iodoacetate-induced tactile allodynia; assay: monosodium iodoacetate-induced tactile allodynia (von Frey filaments); assay type: in vivo, rat
[4] = tested on: monosodium iodoacetate-induced mechanical hyperalgesia; assay: monosodium iodoacetate-induced mechanical hyperalgesia (Randall-Selitto paw pressure); assay type: in vivo, rat; conditions: for mechanical hyperalgesia (paw pressure withdrawal threshold) compared to iodoacetate/vehicle treated animals: day 3; for mechanical hyperalgesia (paw pressure withdrawal threshold): day 7
[5] = tested on: formalin-induced flinching and licking of the affected paw; assay: rat formalin paw test (late phase); assay type: in vivo
Experimental: Rats were given an intraplantar injection of 5% formalin (50 μl) into the posterior left paw. This treatment induces a recognizable flinching and licking response of the affected paw in control animals. The number of flinches was counted for 15 minutes, beginning 20 minutes after injection of formalin. The time spent licking the affected paw was also recorded.
Male Rj: Wistar (Han) rats, 10 per group, weighing 100-130 g at the beginning of the experiments were studied per group. The test was performed blind.
Lacosamide (20 mg/kg), gabapentin (50 and 100 mg/kg), combinations of lacosamide (20 mg/kg) with gabapentin (50 and 100 mg/kg), and vehicle were administered i.p. 10 minutes before injection of formalin.
Lacosamide (10 and 20 mg/kg), morphine (2 and 4 mg/kg), combinations of lacosamide (10 and 20 mg/kg) with morphine (2 and 4 mg/kg), and vehicle were administered i.p. 10 minutes before injection of formalin.
Lacosamide (10 mg/kg), duloxetine (8 mg/kg), a combination of lacosamide (10 mg/kg) with duloxetine (8 mg/kg), and vehicle were administered i.p. 10 minutes before injection of formalin.
Lacosamide (10 and 20 mg/kg), memantine (4 and 8 mg/kg), combinations of lacosamide (10 and 20 mg/kg) with memantine (4 and 8 mg/kg), and vehicle were administered i.p. 10 minutes before injection of formalin.
Lacosamide (10 and 20 mg/kg), naproxen (8 and 16 mg/kg), combinations of lacosamide (10 and 20 mg/kg) with […] (8 and 16 mg/kg), and vehicle were administered i.p. 10 minutes before injection of formalin. Morphine (8 mg/kg) was included as a comparative treatment.

[6] = 3 mg/kg (lacosamide p.o., morphine s.c.)
[7] = Example 3, lacosamide 20 mg/kg i.p.
[8] = Example 4, lacosamide 10 mg/kg i.p.
[9] = Example 4, lacosamide 20 mg/kg i.p.
[10] = Example 5, lacosamide 10 mg/kg i.p.
[11] = Example 6, lacosamide 10 mg/kg i.p.
[12] = Example 6, lacosamide 20 mg/kg i.p.
[13] = Example 7, lacosamide 10 mg/kg i.p.
[14] = Example 7, lacosamide 20 mg/kg i.p.
[15] = Example 4, morphine 2 mg/kg i.p.
[16] = Example 4, morphine 4 mg/kg i.p.
[17] = Example 7, morphine 8 mg/kg i.p.

SMILES: COC[C@@H](NC(C)=O)C(=O)NCc1ccccc1 [Lacosamide, (R)-2-acetamido-N-benzyl-3-methoxypropionamide]
- MPE (maximal possible effect) on muscle pressure hyperalgesia, versus vehicle ([1]; 10 mg/kg i.p.): significantly different from vehicle
- MPE (maximal possible effect) on muscle pressure hyperalgesia, versus vehicle ([1]; 30 mg/kg i.p.): significantly different from vehicle
- reversal of muscular mechanical hyperalgesia (withdrawal threshold to muscle pressure) ([1]; 30 mg/kg i.p.): full reversal
- reversal of muscular mechanical hyperalgesia (withdrawal threshold to muscle pressure) ([1]; 30 mg/kg i.p., listed as lacosamide): complete reversal
- effect on muscle pain in comparison to pregabalin and gabapentin ([1]; paw pressure test): stronger effect
- MPE (maximal possible effect) on biceps muscle grip strength, versus vehicle ([2]; 10 mg/kg i.p.): significantly different from vehicle
- MPE (maximal possible effect) on biceps muscle grip strength, versus vehicle ([2]; 30 mg/kg i.p.): significantly different from vehicle
- reversal of TNF-induced reduction of grip strength ([2]; 10 mg/kg i.p., 10 mg/kg): significant reversal; also recorded: reversed the effect of TNF
- reversal of TNF-induced reduction of grip strength ([2]; 30 mg/kg i.p.): significant reversal
- potency compared with pregabalin and gabapentin ([2]; grip strength test): more potent
- tactile allodynia of iodoacetate-treated rats ([3]; day 3, 30 mg/kg (lacosamide p.o., diclofenac s.c.)): improved
- tactile allodynia of iodoacetate-treated rats ([3]; day 7, 30 mg/kg (lacosamide p.o., diclofenac s.c.)): improved
- tactile allodynia of iodoacetate-treated rats ([3]; day 14, 30 mg/kg (lacosamide p.o., diclofenac s.c.)): not on day 14
- tactile allodynia of iodoacetate-treated rats ([3]; lower doses of lacosamide (3, 10 mg/kg p.o.)): showed a trend for such improvement
- mechanical hyperalgesia (paw pressure withdrawal threshold) compared to iodoacetate/vehicle treated animals [4, 6]: increase in paw pressure withdrawal threshold
- mechanical hyperalgesia (paw pressure withdrawal threshold) [4, 6]: reduced mechanical hyperalgesia
- mechanical hyperalgesia (paw pressure withdrawal threshold) ([4]; 30 mg/kg (lacosamide p.o., diclofenac s.c.)): reduced mechanical hyperalgesia
- Licking time % change (a): compared with vehicle control [5, 7]: −34%
- Licking time (seconds) mean ± SEM [5, 7]: 146.9 ± 23.8 s
- No. of flinches % change (a): compared with vehicle control [5, 7]: −33%
- No. of flinches mean ± SEM [5, 7]: 85.7 ± 14.3
- decrease in the number of flinches as compared with vehicle controls [5, 7]: 33%
- decrease in the time spent licking as compared with vehicle controls [5, 7]: 34%
- Licking time % change (a): compared with vehicle control [5, 8]: −28%
- Licking time (seconds) mean ± SEM [5, 8]: 210.1 ± 22.7 s
- No. of flinches % change (a): compared with vehicle control [5, 8]: +22%
- No. of flinches mean ± SEM [5, 8]: 182.7 ± 25.9
- decrease in the time spent licking as compared with vehicle controls [5, 8]: 28%
- increase in the number of flinches as compared with vehicle controls [5, 8]: 22%
- Licking time % change (a): compared with vehicle control [5, 9]: −56%
- Licking time (seconds) mean ± SEM [5, 9]: 128.2 ± 28.0 s
- No. of flinches % change (a): compared with vehicle control [5, 9]: −35%
- No. of flinches mean ± SEM [5, 9]: 97.2 ± 16.0
- decrease in the number of flinches as compared with vehicle controls [5, 9]: 35%
- decrease in the time spent licking as compared with vehicle controls [5, 9]: 56%
- Licking time % change (a): compared with vehicle control [5, 10]: −30%
- Licking time (seconds) mean ± SEM [5, 10]: 185.2 ± 31.7 s
- No. of flinches % change (a): compared with vehicle control [5, 10]: +5%
- No. of flinches mean ± SEM [5, 10]: 158.2 ± 15.6
- decrease in the time spent licking [5, 10]: 30%
- effects on number of flinches and time spent licking [5, 10]: no significant effects
- Licking time % change (a): compared with vehicle control [5, 11]: −4%
- Licking time (seconds) mean ± SEM [5, 11]: 168.5 ± 23.9 s
- No. of flinches % change (a): compared with vehicle control [5, 11]: −31%
- No. of flinches mean ± SEM [5, 11]: 113.9 ± 23.2
- decrease in the number of flinches as compared with vehicle controls [5, 11]: 31%
- effect on the time spent licking [5, 11]: no clear effects
- Licking time % change (a): compared with vehicle control [5, 12]: −52%
- Licking time (seconds) mean ± SEM [5, 12]: 85.1 ± 19.1 s
- No. of flinches % change (a): compared with vehicle control [5, 12]: −48%
- No. of flinches mean ± SEM [5, 12]: 85.8 ± 14.4
- decrease in the number of flinches as compared with vehicle controls [5, 12]: 48%
- decrease in the time spent licking [5, 12]: 52%
- Licking time % change (a): compared with vehicle control [5, 13]: −9%
- Licking time (seconds) mean ± SEM [5, 13]: 174.7 ± 20.4 s
- No. of flinches % change (a): compared with vehicle control [5, 13]: −13%
- No. of flinches mean ± SEM [5, 13]: 99.2 ± 16.6
- effect on the time spent licking [5, 13]: no clear effects
- Licking time % change (a): compared with vehicle control [5, 14]: −59%
- Licking time (seconds) mean ± SEM [5, 14]: 78.9 ± 20.4 s
- No. of flinches % change (a): compared with vehicle control [5, 14]: −12%
- No. of flinches mean ± SEM [5, 14]: 100.3 ± 22.3
- decrease in the time spent licking [5, 14]: 59%
- effect on the number of flinches as compared with vehicle controls ([5]; Example 7, lacosamide 10 and 20 mg/kg i.p.): did not clearly affect

SMILES: CN1CC[C@]23c4c5ccc(O)c4O[C@H]2[C@@H](O)C=C[C@H]3[C@H]1C5 [Morphine, morphine, reference compound]
- tactile allodynia of iodoacetate-treated rats ([3]; day 3, 3 mg/kg s.c.): improved
- tactile allodynia of iodoacetate-treated rats ([3]; day 7, 3 mg/kg s.c.): improved
- tactile allodynia of iodoacetate-treated rats ([3]; day 14, 3 mg/kg s.c.): not on day 14
- mechanical hyperalgesia (paw pressure withdrawal threshold) compared to iodoacetate/vehicle treated animals [4, 6]: increase in paw pressure withdrawal threshold
- mechanical hyperalgesia (paw pressure withdrawal threshold) [4, 6]: reduced mechanical hyperalgesia
- Licking time % change (a): compared with vehicle control [5, 15]: −1%
- Licking time (seconds) mean ± SEM [5, 15]: 289.3 ± 30.7 s
- No. of flinches % change (a): compared with vehicle control [5, 15]: −7%
- No. of flinches mean ± SEM [5, 15]: 139.5 ± 25.3
- Licking time % change (a): compared with vehicle control [5, 16]: −20%
- Licking time (seconds) mean ± SEM [5, 16]: 234.9 ± 37.3 s
- No. of flinches % change (a): compared with vehicle control [5, 16]: −37%
- No. of flinches mean ± SEM [5, 16]: 94.3 ± 21.1
- effects on the number of flinches and the time spent licking as compared with vehicle controls ([5]; Example 4, morphine 2 and 4 mg/kg i.p.): did not reach statistical significance
- Licking time % change (a): compared with vehicle control [5, 17]: −100%
- Licking time (seconds) mean ± SEM [5, 17]: 0.0 ± 0.0 s
- No. of flinches % change (a): compared with vehicle control [5, 17]: −100%
- No. of flinches mean ± SEM [5, 17]: 0.2 ± 0.1
- effect on flinching and the time spent licking as compared with vehicle controls [5, 17]: eliminated
